Results: PubChem BioAssay AID1996
In brackets after ≈: the same amount, converted by molar mass.

conditions: buffer; pH 7.4; 200.0 µM

| SMILES | solubility kinetic |
| --- | --- |
| COc1ccccc1NC(=O)COC(=O)c1ccc([N+](=O)[O-])s1 | 5.1 µg/mL (≈ 15.2 µM) |
| CC(C(=O)Nc1ccc(F)c(F)c1F)N(C)Cc1cccs1 (stereo not given) | 13.6 µg/mL (≈ 41.4 µM) |
| CC(=O)NC(CC(=O)NCc1ccncc1)c1ccccc1 (stereo not given) | > 44.6 µg/mL |
| Cc1ccccc1OCCCCn1c(CO)nc2ccccc21 | 29.2 µg/mL (≈ 94.1 µM) |
| COc1cc(Oc2nc(C(F)(F)F)nc3ccccc23)ccc1C=O | < 0.4 µg/mL |
| CCNC(=O)c1ccc(NS(=O)(=O)c2ccc3[nH]c(=O)[nH]c3c2)cc1 | > 54.1 µg/mL |
| CCOc1ccc(N2CC(C(=O)N3CCCCC3)CC2=O)cc1 (stereo not given) | 46.4 µg/mL (≈ 147 µM) |
| O=C(/C=C/c1cccc(F)c1)Nc1cc(S(=O)(=O)N2CCOCC2)ccc1Cl | 6.3 µg/mL (≈ 14.8 µM) |
| Cc1ccc(CNCCc2ccc(F)cc2)s1 | 26.7 µg/mL (≈ 107 µM) |
| CCN(CC(=O)Nc1ccc(C)c(F)c1)CC(=O)NC(C)C | > 46.4 µg/mL |
| CC(C)C(NC(=O)C1CC(=O)N(Cc2ccccc2)C1)c1nc2ccccc2[nH]1 (stereo not given) | > 58.6 µg/mL |
| COc1ccccc1OCCCC(=O)NC(C)c1ccccc1 (stereo not given) | > 47 µg/mL |
| COc1cc(S(=O)(=O)N2CCOCC2)ccc1NC(=O)COC(=O)c1ccc(Cl)nc1 | 6.4 µg/mL (≈ 13.6 µM) |
| C/C=C/c1ccc(OCC(=O)NCc2ccccc2OC)c(OC)c1 | 2.9 µg/mL (≈ 8.49 µM) |
| COc1ccccc1CNC(=O)N1CCN(c2ccccc2)CC1 | > 48.8 µg/mL |
| CC1CCOC2(O1)C(=O)Nc1ccccc12 (stereo not given) | 24.4 µg/mL (≈ 111 µM) |
| Cc1nnc(N2C(=O)c3ccc(Br)cc3C2=O)s1 | > 48.6 µg/mL |
| Cc1cc(C(F)(F)F)nc(SCC(=O)NC2CCCCC2)n1 | 33.2 µg/mL (≈ 99.6 µM) |
| Cc1cccc(NC(=O)c2ccc(NCCO)c([N+](=O)[O-])c2)n1 | 3.4 µg/mL (≈ 10.7 µM) |
| O=C(Nc1ccc(NC(=O)C2CC2)cc1)c1cccs1 | 3.3 µg/mL (≈ 11.5 µM) |

| SMILES | solubility kinetic |
| --- | --- |
| Cc1cnc(CNC(=O)c2ccc3oc(C(C)C)nc3c2)[nH]1 | 38.2 µg/mL (≈ 128 µM) |
| CN(C)c1ccc(C(=O)N(Cc2ccccc2)Cc2ccccc2)cc1 | < 0.4 µg/mL |
| CC(=O)c1ccc(NC(=O)Nc2ccncc2)cc1 | > 38.3 µg/mL |
| C=CCn1c(O)c(C=NCCN2CCOCC2)c(=O)[nH]c1=S | > 48.7 µg/mL |
| Cn1c(=O)n(C)c2cc(NC(=O)COc3ccc(F)cc3F)ccc21 | 47.2 µg/mL (≈ 136 µM) |
| COC(=O)c1c(C(=O)OC)c2ccccn2c1C(=O)c1ccccc1 | 6.2 µg/mL (≈ 18.4 µM) |
| CC1(NS(=O)(=O)c2ccc(Cl)s2)CCS(=O)(=O)C1 (stereo not given) | > 49.5 µg/mL |
| CNC(=S)Nc1cccc(-c2cnc3ccccc3n2)c1 | 43.7 µg/mL (≈ 148 µM) |
| Cc1cccc(C)c1NC(=O)N1CCC(C(=O)c2ccc(F)cc2)CC1 | 15.4 µg/mL (≈ 43.5 µM) |
| CCc1ccc2[nH]c(C)c(CN3CCCCCC3)c(=O)c2c1 | > 44.8 µg/mL |
| O=S(=O)(c1ccc(Br)cc1)N1CCCC1 | 41.5 µg/mL (≈ 143 µM) |
| Nc1ccc(OCc2ccco2)cc1 | 19.5 µg/mL (≈ 103 µM) |
| COc1ccc(-c2nc(N)ncc2-c2ccccc2)c(O)c1 | 0.9 µg/mL (≈ 3.07 µM) |
| O=C(CN1CCOCC1)Nc1cc([N+](=O)[O-])ccc1Cl | 9.8 µg/mL (≈ 32.7 µM) |
| COc1cc(C(=O)Nc2ccc(Nc3ccccc3)cc2)cc(OC)c1OC | 4.4 µg/mL (≈ 11.6 µM) |
| CNC(=S)Nc1ccc(N2CCCC2)c(S(=O)(=O)Nc2ccc(OC)cc2)c1 | 34.6 µg/mL (≈ 82.3 µM) |
| CCCOc1ccc(N2C(=O)C/C(=C\c3ccccc3)C2=O)cc1 | < 0.7 µg/mL |
| Cc1ccc(C(=O)Nc2ccccc2)cc1S(=O)(=O)N1CCN(C)CC1 | 31.8 µg/mL (≈ 85.1 µM) |
| CCS(=O)(=O)N1CCC(C(=O)Oc2ccc(Cl)cc2)CC1 | 9.9 µg/mL (≈ 29.8 µM) |
| CCOc1ccc(C(=O)NCC(=O)OCC(=O)N2CCCC2)cc1 | > 50.2 µg/mL |

| SMILES | solubility kinetic |
| --- | --- |
| CCCc1ccc(C(=O)NC(=O)c2ccccc2O)cc1 | 3.2 µg/mL (≈ 11.3 µM) |
| Cc1ccc(NC(=O)C2COc3ccccc3O2)cc1C (stereo not given) | 14.5 µg/mL (≈ 51.2 µM) |
| Cc1ccc(S(=O)(=O)/N=C2/NC(=O)/C(=C\c3ccccc3)S2)cc1 | > 53.8 µg/mL |
| COc1cc(/C=C2\SC(=O)N(CCNC(=O)c3c(C)noc3C)C2=O)cc(OC)c1OC | 4.8 µg/mL (≈ 10.4 µM) |
| O=C(NCc1ccccn1)C(=O)Nc1nc(-c2ccccc2)cs1 | 1.6 µg/mL (≈ 4.73 µM) |
| COC(=O)c1sccc1N/C=C(\C#N)S(=O)(=O)C(C)(C)C | 2.3 µg/mL (≈ 7 µM) |
| COc1ccc(Br)cc1S(=O)(=O)NCCc1cccs1 | 34.4 µg/mL (≈ 91.4 µM) |
| COc1ccc(CCC(=O)OCC(=O)NCc2ccccc2)cc1 | > 49.1 µg/mL |
| COc1cc2c(cc1OC)-c1cc(Nc3ccccc3C)nc(=O)n1CC2 | 49.3 µg/mL (≈ 136 µM) |
| COc1ccc(N/C=C/C(=O)c2ccccc2)cc1 | < 0.5 µg/mL |
| Cc1ccc(S(=O)(=O)n2cnc(C)c2)cc1 | > 35.4 µg/mL |
| CCCCN(Cc1ccccc1)C1CCN(Cc2ccccc2)CC1 | 27.3 µg/mL (≈ 81.1 µM) |
| O=C(CCCOc1ccccc1)NCCc1nc2ccccc2[nH]1 | > 48.5 µg/mL |
| O=Cc1c(-c2ccc(F)cc2)nc2ccccn12 | 2.5 µg/mL (≈ 10.4 µM) |
| CCN1CCN(c2oc(/C=C/c3ccccc3)nc2C#N)CC1 | 42.4 µg/mL (≈ 137 µM) |
| Cc1ccc(/C(O)=C/C(=O)C(=O)NC23CC4CC(CC(C4)C2)C3)cc1 | 8.4 µg/mL (≈ 24.7 µM) |
| O=C(CC12CC3CC(CC(Br)(C3)C1)C2)NC1CCCC1 | 36.4 µg/mL (≈ 107 µM) |
| Cl.c1cncc(CNCc2ccco2)c1 | > 33.7 µg/mL |
| C#CCn1cccc(C(=O)Nc2ccc(OC)cc2)c1=O | 6.3 µg/mL (≈ 22.3 µM) |
| Cc1cc(OC(F)F)ccc1NC(=O)Nc1ccc2c(c1)OCO2 | < 0.4 µg/mL |
